Experimental data from PubChem BioAssay (NCI).
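GI50: concentration for 50% inhibition of growth. Definition used: TGI = concentration required for complete inhibition of growth.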

Tests used:
Experiment in all cases: NCI anticancer screen, dose series, 384-well format
[1] = tested on: RPMI-8226 leukemia
[2] = tested on: SF-539 CNS
[3] = tested on: BT-549 breast
[4] = tested on: NCI-H460 NSCLC
[5] = tested on: NCI-H226 lung
[6] = tested on: ACHN renal
[7] = tested on: HOP-92 NSCLC
[8] = tested on: UACC-257 melanoma
[9] = tested on: SK-OV-3 ovarian
[10] = tested on: UACC-62 melanoma
[11] = tested on: OVCAR-5 ovarian
[12] = tested on: MCF7 breast
[13] = tested on: MDA-MB-468 breast
[14] = tested on: MDA-MB-231 breast
[15] = tested on: UO-31 renal
[16] = tested on: MDA-MB-435 melanoma
[17] = tested on: T-47D breast
[18] = tested on: HCT-116 colon
[19] = tested on: U251 glioblastoma
[20] = tested on: HCT-15 colon
[21] = tested on: MOLT-4 leukemia
[22] = tested on: KM12 colon
[23] = tested on: NCI-H322M lung
[24] = tested on: OVCAR-3 ovarian
[25] = tested on: SW-620 colon
[26] = tested on: A498 renal
[27] = tested on: SK-MEL-28 melanoma
[28] = tested on: PC-3 prostate
[29] = tested on: SF-295 CNS
[30] = tested on: M14 melanoma
[31] = tested on: TK-10 renal
[32] = tested on: OVCAR-4 ovarian
[33] = tested on: HT29 colon
[34] = tested on: RXF 393 renal
[35] = tested on: A549 NSCLC
[36] = tested on: MALME-3M melanoma
[37] = tested on: LOX IMVI melanoma
[38] = tested on: DU-145 prostate
[39] = tested on: HCC-2998 colon
[40] = tested on: SK-MEL-2 melanoma
[41] = tested on: 786-0 renal
[42] = tested on: COLO 205 colon
[43] = tested on: CAKI-1 renal
[44] = tested on: SN12C renal
[45] = tested on: SNB-75 CNS
[46] = tested on: IGROV1 ovarian
[47] = tested on: SK-MEL-5 melanoma
[48] = tested on: OVCAR-8 ovarian
[49] = tested on: SNB-19 CNS
[50] = tested on: CCRF-CEM leukemia
[51] = tested on: NCI/ADR-RES ovarian
[52] = tested on: SR leukemia
[53] = tested on: K-562 leukemia
[54] = tested on: HL-60(TB) leukemia
[55] = tested on: SF-268 CNS
[56] = tested on: HOP-62 NSCLC
[57] = tested on: EKVX NSCLC
[58] = tested on: NCI-H23 lung
[59] = tested on: NCI-H522 lung

CCc1cccc(CC)c1NC(=O)c1ccn2c1CCc1cnc(Nc3ccc(N4CCN(C)CC4)cc3OC)nc1-2
GI50 [1]: 17.8 nM
TGI [1]: 57.5 nM
GI50 [2]: < 19.4 nM
TGI [2]: 1450 nM
GI50 [3]: 48.9 nM
TGI [3]: 1450 nM
GI50 [4]: < 10 nM
TGI [4]: 1070 nM
GI50 [5]: 315 nM
TGI [5]: 2430 nM
GI50 [6]: 37.9 nM
TGI [6]: 2210 nM
GI50 [7]: 758 nM
TGI [7]: 2120 nM
GI50 [8]: 293 nM
TGI [8]: 894 nM
GI50 [9]: 1260 nM
TGI [9]: 2540 nM
GI50 [10]: 605 nM
TGI [10]: 2180 nM
GI50 [11]: 110 nM
TGI [11]: 1970 nM
GI50 [12]: < 10 nM
TGI [12]: 2160 nM
GI50 [13]: 36.2 nM
TGI [13]: 305 nM
GI50 [14]: 1100 nM
TGI [14]: 2320 nM
GI50 [15]: 75 nM
TGI [15]: 1890 nM
GI50 [16]: 1070 nM
TGI [16]: 2580 nM
GI50 [17]: 1100 nM
TGI [17]: 2320 nM
GI50 [18]: < 10 nM
TGI [18]: 1770 nM
GI50 [19]: < 11.5 nM
TGI [19]: 1480 nM
GI50 [20]: < 10 nM
TGI [20]: 1350 nM
GI50 [21]: < 10 nM
GI50 [22]: 1090 nM
TGI [22]: 2320 nM
GI50 [23]: 1480 nM
TGI [23]: 3080 nM
GI50 [24]: 110 nM
TGI [24]: 2000 nM
GI50 [25]: < 10 nM
GI50 [26]: < 21.9 nM
TGI [26]: 1970 nM
GI50 [27]: 1210 nM
TGI [27]: 2460 nM
GI50 [28]: 1140 nM
TGI [28]: 2400 nM
GI50 [29]: 36.6 nM
TGI [29]: 1820 nM
GI50 [30]: 200 nM
TGI [30]: 2150 nM
GI50 [31]: 312 nM
TGI [31]: 2370 nM
GI50 [32]: 1490 nM
TGI [32]: 2910 nM
GI50 [33]: 56.2 nM
TGI [33]: 1530 nM
GI50 [34]: < 19.8 nM
TGI [34]: 1750 nM
GI50 [35]: < 10 nM
TGI [35]: 2480 nM
GI50 [36]: 1250 nM
TGI [36]: 2510 nM
GI50 [37]: 13.4 nM
TGI [37]: 1360 nM
GI50 [38]: 35.8 nM
TGI [38]: 2320 nM
GI50 [39]: 1380 nM
TGI [39]: 2710 nM
GI50 [40]: 196 nM
TGI [40]: 1950 nM
GI50 [41]: 39.1 nM
TGI [41]: 1690 nM
GI50 [42]: < 10 nM
TGI [42]: 1250 nM
GI50 [43]: 242 nM
TGI [43]: 2200 nM
GI50 [44]: 997 nM
TGI [44]: 2160 nM
GI50 [45]: 1370 nM
TGI [45]: 2690 nM
GI50 [46]: 1220 nM
TGI [46]: 2480 nM
GI50 [47]: 61.5 nM
TGI [47]: 2020 nM
GI50 [48]: 19.8 nM
TGI [48]: 1140 nM
GI50 [49]: 1210 nM
TGI [49]: 2580 nM
GI50 [50]: < 10 nM
TGI [50]: 11.1 nM
GI50 [51]: 27 nM
TGI [51]: 86.2 nM
GI50 [52]: < 10 nM
GI50 [53]: 82.4 nM
TGI [53]: 1400 nM
GI50 [54]: 13.6 nM
TGI [54]: 36.4 nM
GI50 [55]: 1290 nM
TGI [55]: 2770 nM
GI50 [56]: < 19.6 nM
TGI [56]: 1760 nM
GI50 [57]: 283 nM
TGI [57]: 2280 nM
GI50 [58]: 56.2 nM
TGI [58]: 2680 nM
GI50 [59]: 88.9 nM
TGI [59]: 1720 nM
